Columns and labels:
bedstraw = experiment: Test B pre/postemergence bedstraw; assay type: in vivo, Galium aparine
In short: (§1)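 Response is a visual 0-to-10 score relative to untreated plants, where 0 means no effect and 10 means complete control, taken twelve to sixteen days after application. Treatments went onto soil at planting and onto foliage of 1- to 4-leaf plants, using a surfactant-containing non-phytotoxic solvent.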

blackgrass = experiment: Test B pre/postemergence blackgrass; assay type: in vivo, Alopecurus myosuroides
In short: as §1

surinam grass = experiment: Test B pre/postemergence surinam grass; assay type: in vivo, Brachiaria decumbens
In short: as §1

cocklebur = experiment: Test B pre/postemergence cocklebur; assay type: in vivo, Xanthium strumarium
In short: as §1

corn = experiment: Test B pre/postemergence corn; assay type: in vivo, Zea mays
In short: as §1

crabgrass = experiment: Test B pre/postemergence crabgrass; assay type: in vivo, Digitaria sanguinalis
In short: as §1

giant foxtail = experiment: Test B pre/postemergence giant foxtail; assay type: in vivo, Setaria faberii
In short: as §1

morningglory = experiment: Test B pre/postemergence morningglory; assay type: in vivo, Ipomoea hederacea
In short: as §1

pigweed = experiment: Test B pre/postemergence pigweed; assay type: in vivo, Amaranthus retroflexus
In short: as §1

rape = experiment: Test B pre/postemergence rape; assay type: in vivo, Brassica napus
In short: as §1

soybean = experiment: Test B pre/postemergence soybean; assay type: in vivo, Glycine max
In short: as §1

sugar beet = experiment: Test B pre/postemergence sugar beet; assay type: in vivo, Beta vulgaris
In short: as §1

velvetleaf = experiment: Test B pre/postemergence velvetleaf; assay type: in vivo, Abutilon theophrasti
In short: as §1

wheat = experiment: Test B pre/postemergence wheat; assay type: in vivo, Triticum aestivum
In short: as §1

wild oat = experiment: Test B pre/postemergence wild oat; assay type: in vivo, Avena fatua
In short: as §1

purple nutsedge = experiment: Test B pre/postemergence purple nutsedge; assay type: in vivo, Cyperus rotundus
In short: as §1

rice = experiment: Test B flood test rice; assay type: in vivo, Oryza sativa
In short: (§2)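 Flood test on plants grown to the 2-leaf stage; treated plants kept in greenhouse twelve to sixteen days, then visually rated against controls on a 0 (no effect) to 10 (complete control) scale.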

smallflower flatsedge = experiment: Test B flood test smallflower flatsedge; assay type: in vivo, Cyperus difformis
In short: as §2

duck salad = experiment: Test B flood test duck salad; assay type: in vivo, Heteranthera limosa
In short: as §2

bamyardgrass = experiment: Test B flood test barnyardgrass; assay type: in vivo, Echinochloa crus-galli
In short: as §2

[1] = Preemergence, Rate 62 g/ha, scale of 0 to 10 where 0 is no effect and 10 is complete control
[2] = Preemergence, Rate 250 g/ha, scale of 0 to 10 where 0 is no effect and 10 is complete control
[3] = Preemergence, Rate 500 g/ha, scale of 0 to 10 where 0 is no effect and 10 is complete control
[4] = Rate 62 g/ha, Postemergence, scale of 0 to 10 where 0 is no effect and 10 is complete control
[5] = Rate 125 g/ha, Postemergence, scale 0 to 10
[6] = Rate 125 g/ha, Preemergence, scale of 0 to 10 where 0 is no effect and 10 is complete control
[7] = Rate 500 g/ha, Postemergence, scale 0 to 10, 0 no effect, 10 complete control
[8] = Rate 62 g/ha, headed Pre-emergence (flood test species), scale 0 to 10 (0 no effect, 10 complete control)
[9] = Rate 125 g/ha, Pre-emergence, flood test species, scale 0 to 10 where 0 is no effect and 10 is complete control
[10] = Rate 250 g/ha, Pre-emergence, flood-test species, scale 0 to 10, 0 is no effect, 10 is complete control
[11] = Rate 500 g/ha, Pre-emergence, flood test species, scale 0 to 10 (0 no effect, 10 complete control)

COC(=O)CCCn1c(=O)on(C(=O)N(c2ccc(F)cc2)C(C)C)c1=O [Compound 266]
0: Bedstraw plant response rating (bedstraw; [1]) | Bedstraw plant response rating (bedstraw; [4]) | Bedstraw plant response rating (bedstraw; [5]) | B. signalgrass plant response rating (surinam grass; [1]) | B. signalgrass plant response rating (surinam grass; [2]) | B. signalgrass plant response rating (surinam grass; [4]) | B. signalgrass plant response rating (surinam grass; Rate 125 g/ha, Postemergence, scale 0 (no effect) to 10 (complete control)) | B. signalgrass plant response rating (surinam grass; [6]) | Plant response rating (0 to 10; 0 is no effect, 10 is complete control), B. signalgrass (surinam grass; Rate 250 g/ha, Postemergence) | Cocklebur plant response rating (cocklebur; [1]) | Cocklebur plant response rating (cocklebur; [2]) | Plant response rating, Cocklebur (cocklebur; [3]) | Cocklebur plant response rating (cocklebur; [4]) | Cocklebur plant response rating (cocklebur; [5]) | Cocklebur plant response rating (cocklebur; [6]) | Corn plant response rating (corn; [1]) | Corn plant response rating (corn; [2]) | Plant response rating, Corn (corn; [3]) | Corn plant response rating (corn; [4]) | Corn plant response rating (corn; [5]) | Corn plant response rating (corn; [6]) | Plant response rating (0 to 10; 0 is no effect, 10 is complete control), Corn (corn; Rate 250 g/ha, Postemergence) | Corn plant response rating (corn; [7]) | Crabgrass plant response rating (crabgrass; [1]) | Giant foxtail plant response rating (giant foxtail; [1]) | Morningglory plant response rating (morningglory; [1]) | Morningglory plant response rating (morningglory; [2]) | Morningglory plant response rating (morningglory; [6]) | Redroot pigweed plant response rating (pigweed; [1]) | Redroot pigweed plant response rating (pigweed; [6]) | Rape plant response rating (rape; [1]) | Rape plant response rating (rape; [6]) | Soybean plant response rating (soybean; [1]) | Soybean plant response rating (soybean; [2]) | Plant response rating, Soybean (soybean; [3]) | Soybean plant response rating (soybean; [6]) | Sugarbeets plant response rating (sugar beet; [1]) | Velvetleaf plant response rating (velvetleaf; [1]) | Velvetleaf plant response rating (velvetleaf; [2]) | Velvetleaf plant response rating (velvetleaf; [6]) | Wheat plant response rating (wheat; [1]) | Wheat plant response rating (wheat; [6]) | Wild oats plant response rating (wild oat; [1]) | Nutsedge plant response rating (purple nutsedge; [2]) | Plant response rating, Nutsedge (purple nutsedge; [3]) | Nutsedge plant response rating (purple nutsedge; [6]) | Plant response rating (0 to 10; 0 is no effect, 10 is complete control), Nutsedge (purple nutsedge; Rate 250 g/ha, Postemergence) | Rice plant response rating (rice; [8]) | Rice plant response rating (rice; [9]) | Rice plant response rating (rice; [10]) | Rice plant response rating (rice; [11]) | S. Flatsedge plant response rating (smallflower flatsedge; [8]) | S. Flatsedge plant response rating (smallflower flatsedge; [9]) | S. Flatsedge plant response rating (smallflower flatsedge; [10]) | S. Flatsedge plant response rating (smallflower flatsedge; [11]) | Ducksalad plant response rating (duck salad; [8]) | Ducksalad plant response rating (duck salad; [9]) | Ducksalad plant response rating (duck salad; [10]) | Ducksalad plant response rating (duck salad; [11]) | Barnyardgrass plant response rating (bamyardgrass; [8]) | Barnyardgrass plant response rating (bamyardgrass; [9]) | Barnyardgrass plant response rating (bamyardgrass; [10]) | Barnyardgrass plant response rating (bamyardgrass; [11])
9: Plant response rating, Bedstraw (bedstraw; [3]) | Blackgrass plant response rating (blackgrass; [2]) | Plant response rating, Blackgrass (blackgrass; [3]) | Plant response rating, Redroot pigweed (pigweed; [3])
3: Bedstraw plant response rating (bedstraw; [6]) | Blackgrass plant response rating (blackgrass; [4]) | Plant response rating (0 to 10; 0 is no effect, 10 is complete control), Crabgrass (crabgrass; Rate 250 g/ha, Postemergence) | Nutsedge plant response rating (purple nutsedge; [7])
4: Giant foxtail plant response rating (giant foxtail; [6]) | Plant response rating, Velvetleaf (velvetleaf; [3]) | Wheat plant response rating (wheat; [2])
2: B. signalgrass plant response rating (surinam grass; [7]) | Plant response rating (0 to 10; 0 is no effect, 10 is complete control), Cocklebur (cocklebur; Rate 250 g/ha, Postemergence) | Cocklebur plant response rating (cocklebur; [7]) | Wild oats plant response rating (wild oat; [6]) | Wild oats plant response rating (wild oat; [7])
8: Bedstraw plant response rating (bedstraw; [2]) | Blackgrass plant response rating (blackgrass; [1]) | Blackgrass plant response rating (blackgrass; [6]) | Blackgrass plant response rating (blackgrass; [7]) | Plant response rating, Giant foxtail (giant foxtail; [3]) | Morningglory plant response rating (morningglory; [7]) | Soybean plant response rating (soybean; [7])
7: Plant response rating, B. signalgrass (surinam grass; [3]) | Giant foxtail plant response rating (giant foxtail; [7]) | Redroot pigweed plant response rating (pigweed; [7]) | Rape plant response rating (rape; [7]) | Sugarbeets plant response rating (sugar beet; [2]) | Plant response rating, Sugarbeets (sugar beet; [3]) | Sugarbeets plant response rating (sugar beet; [7]) | Plant response rating, Wild oats (wild oat; [3])
6: Bedstraw plant response rating (bedstraw; [7]) | Plant response rating (0 to 10; 0 is no effect, 10 is complete control), Blackgrass (blackgrass; Rate 250 g/ha, Postemergence) | Plant response rating, Crabgrass (crabgrass; [3]) | Giant foxtail plant response rating (giant foxtail; [2]) | Redroot pigweed plant response rating (pigweed; [2]) | Plant response rating (0 to 10; 0 is no effect, 10 is complete control), Rape (rape; Rate 250 g/ha, Postemergence) | Plant response rating, Wheat (wheat; [3]) | Wheat plant response rating (wheat; [7])
1: Crabgrass plant response rating (crabgrass; [6]) | Plant response rating, Morningglory (morningglory; [3])
5: Plant response rating (0 to 10; 0 is no effect, 10 is complete control), Bedstraw (bedstraw; Rate 250 g/ha, Postemergence) | Blackgrass plant response rating (blackgrass; [5]) | Crabgrass plant response rating (crabgrass; [2]) | Crabgrass plant response rating (crabgrass; [7]) | Plant response rating (0 to 10; 0 is no effect, 10 is complete control), Giant foxtail (giant foxtail; Rate 250 g/ha, Postemergence) | Plant response rating (0 to 10; 0 is no effect, 10 is complete control), Morningglory (morningglory; Rate 250 g/ha, Postemergence) | Plant response rating (0 to 10; 0 is no effect, 10 is complete control), Redroot pigweed (pigweed; Rate 250 g/ha, Postemergence) | Rape plant response rating (rape; [2]) | Plant response rating, Rape (rape; [3]) | Sugarbeets plant response rating (sugar beet; [6]) | Velvetleaf plant response rating (velvetleaf; [7]) | Wild oats plant response rating (wild oat; [2])

Source: patent US6737383B1, “Herbicidal oxadiazolidines” (priority 1999, dated 2004)
